Measured values published in the NIST ThermoML archive (doi:10.1016/j.jct.2019.02.011).

Experiment: xn = mol fraction of the nth substance listed
Conditions: 288.15 K, Liquid, Vibrating tube method

COC(=O)OC [dimethyl carbonate] + CO
mass density [kg/m3]
Conditions	100 kPa	5000 kPa	10000 kPa	15000 kPa	20000 kPa	25000 kPa
x1 = 0.0253	810.84	815.18	819.54	823.48	827.53	831.19
x1 = 0.0503	824.62	828.97	833.29	837.23	841.29	844.9
x1 = 0.0745	837.24	841.59	845.92	849.88	853.93	857.55
x1 = 0.101	850.42	854.82	859.16	863.12	867.17	870.8
x1 = 0.1502	872.98	877.39	881.74	885.77	889.81	893.46
x1 = 0.2059	896.31	900.74	905.09	909.15	913.18	916.85
x1 = 0.25	913.24	917.63	921.99	926.05	930.08	933.76
x1 = 0.3004	930.93	935.33	939.69	943.77	947.8	951.49
x1 = 0.3426	944.7	949.1	953.42	957.51	961.53	965.18
x1 = 0.3984	961.49	965.91	970.23	974.34	978.3	981.96
x1 = 0.4514	976.13	980.55	984.83	988.95	992.91	996.58
x1 = 0.5054	989.85	994.22	998.51	1002.64	1006.6	1010.28
x1 = 0.5509	1000.55	1004.93	1009.17	1013.31	1017.27	1020.95
x1 = 0.6002	1011.31	1015.7	1019.95	1024.09	1028.04	1031.69
x1 = 0.6469	1020.74	1025.14	1029.39	1033.54	1037.49	1041.14
x1 = 0.6993	1030.63	1035.03	1039.28	1043.44	1047.34	–
x1 = 0.7496	1039.53	1043.88	1048.14	1052.31	1056.2	–
x1 = 0.799	1047.69	1052.04	1056.25	1060.43	1064.32	–
x1 = 0.837	1053.71	1058.02	1062.23	1066.41	1070.3	–
x1 = 0.9093	1064.47	1068.78	1072.95	1077.14	1080.97	–
x1 = 0.9239	1066.51	1070.83	1074.99	1079.18	1083.02	–
x1 = 0.9575	1071.14	1075.46	1079.63	1083.83	1087.66	–
x1 = 0.9861	1074.98	1079.3	1083.47	1087.67	1091.5	–
x1 = 1	1076.83	1081.15	1085.32	1089.52	1093.35	–
